From US8435976B2, “4-substituted pyridin-3-yl-carboxamide compounds and methods of use” (F. Hoffmann-La Roche, priority 2009, dated 2013)
pEC50, pIC50: −log10 of the molar value. Read-outs that look alike come from different tables or passages of the source.

Legend:
BaF3 PIM1 cells = BaF3 PIM1 cells (Homo sapiens, UniProt P11309); assay: BaF3 PIM1 cell proliferation (Cell Titer Glo); assay type: cell-based
MM1.S cells = assay: MM1.S cell proliferation, 72 hours (Cell Titer Glo); assay type: cell-based; conditions: Homo sapiens
Outline: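 BaF3 parental cells (2 k/well, with 2 ng/mL mIL-3) were treated overnight, and MM1.S cells (10 k/well) were treated for 72 h at 37 °C. Viability was read by CellTiter-Glo luminescence. IC50/EC50 values were calculated from the luminescence data.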

BaF3 parental cells = assay: BaF3 parental cell proliferation (Cell Titer Glo); assay type: cell-based; conditions: Mus musculus, Table 3
Procedure: BaF3 parental line was obtained from the DSMZ repository. BaF3 lines transfected with PIM1 or PIM2 were generated. Mouse IL-3 was purchased from R&D Systems. G418 was purchased from Clontech. Media for BaF3 parental line contained RPMI, 10% FBS, 2 mM L-Glutamine, 2 ng/mL mIL-3. Media for BaF3 PIM1 & 2 lines contained RPMI, 10% FBS, 2 mM L-Glutamine, […]. Media for MM1.S line contained RPMI, 10% FBS, 2 mM L-Glutamine.
BaF3 parental cells, BaF3 PIM1 cells, BaF3 PIM2 cells, and MM1.S cells were seeded at 2 k/well, 5 k/well, 5 k/well, and 10 k/well respectively, in a 384-well plate, at 45 μL/well. Test compound was added at 5 μL/well. BaF3 cells (parental and transfected) were incubated overnight, while MM1.S cells were incubated for 72 hours at 37° C., 5% CO2. Cell Titer Glo Reagent (Promega) was added at 50 μL/well, the plates were incubated for 30 minutes, and their luminescence read on an HT Analyst. IC50/EC50 values for the test compound were calculated.

EOL-1 = EOL-1 cell assay; assay type: cell-based; conditions: Homo sapiens, EOL1; Table 3
[1] = tested on: multiple myeloma cell line KMS11; assay: Cell Titer Glo proliferation and survival assay, KMS11 and other multiple myeloma cell lines; assay type: cell-based; conditions: Homo sapiens, KMS-11; single agent; ten multiple myeloma cell lines tested; read-out: IC50 against myeloma cell lines, single agent
Excerpt: The results obtained here are representative of a total of ten multiple myeloma cell lines tested.

[2] = tested on: prostate cancer cell line PC3; assay: Cell Titer Glo proliferation and survival assay, PC3; assay type: cell-based; conditions: PC3, FIG. 5
Excerpt: The results obtained here are representative of a subset of prostate cell lines tested.

[3] = tested on: RPMI 8226.x1 multiple myeloma xenografts; assay: RPMI 8226.x1 multiple myeloma xenograft; assay type: in vivo, SCID Beige mice
Procedure: (§1) The efficacy of the combinations of the invention may be measured in vivo by implanting allografts or xenografts of cancer cells in rodents and treating the tumor-bearing animals with the combinations. Variable results are to be expected depending on the cell line, the presence or absence of certain mutations in the tumor cells, the sequence of administration of a formula I compound and chemotherapeutic agent, dosing regimen, and other factors. Subject mice were treated with drug(s) or control (Vehicle) and monitored over several weeks or more to measure the time to tumor doubling, log cell kill, and tumor inhibition.
Dosing of all cohorts commenced on Day 0 when the mean tumor volume of all cohorts was between about 100 to 200 cubic millimeters.

[4] = tested on: syngeneic A20 lymphoma tumors; assay: Syngeneic A20 lymphoma tumor model; assay type: in vivo, Balb/c mice; conditions: Compound 3 25 and 50 mg/kg or Formula A 75 mg/kg po qd x21
Procedure: The efficacy of the combinations of the invention may be measured in vivo by implanting allografts or xenografts of cancer cells in rodents and treating the tumor-bearing animals with the combinations. […] Subject mice were treated with drug(s) or control (Vehicle) and monitored over several weeks or more to measure the time to tumor doubling, log cell kill, and tumor inhibition.
Dosing of all cohorts commenced on Day 0 when the mean tumor volume of all cohorts was between […]. […] At the conclusion of this study, femurs were collected and histological analysis of the bone marrow was conducted, and peripheral blood was collected for determination of blood cell counts.

[5] = tested on: MM1.s multiple myeloma xenografts; assay: MM1.s multiple myeloma xenograft; assay type: in vivo, SCID mice; conditions: Compound 3 50 mg/kg po qd, day 18 vs vehicle
Procedure: as §1
Dosing of all cohorts commenced on Day 0 when the mean tumor volume of all cohorts was between about 200 to 300 cubic millimeters. […] Formula A was tested at as a single agent at a single dose level of 75 mg/kg for which a lesser TGI was obtained at day 18.

[6] = tested on: OPM-2 multiple myeloma xenografts; assay: OPM-2 multiple myeloma xenograft; assay type: in vivo, SCID Beige mice; conditions: Compound 3 50 mg/kg po qd x21, day 23 vs vehicle
Procedure: as §1
Dosing of all cohorts commenced on Day 0 when the mean tumor volume of all cohorts was between about 100 to 200 cubic millimeters. […] Formula A was tested at as a single agent at a single dose level of 75 mg/kg for which a similar TGI was obtained at day 23.

Sequence of BaF3 PIM1 cells (P11309 whole entry, change not shown): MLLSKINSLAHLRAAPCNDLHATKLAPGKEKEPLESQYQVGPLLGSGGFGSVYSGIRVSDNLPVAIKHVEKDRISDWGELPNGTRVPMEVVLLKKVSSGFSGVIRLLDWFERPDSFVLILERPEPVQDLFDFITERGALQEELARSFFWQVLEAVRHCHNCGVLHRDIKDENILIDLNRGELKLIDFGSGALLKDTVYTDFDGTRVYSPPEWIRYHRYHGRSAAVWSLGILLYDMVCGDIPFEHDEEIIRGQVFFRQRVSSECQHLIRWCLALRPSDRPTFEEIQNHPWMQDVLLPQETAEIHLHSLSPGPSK

GI50 (BaF3 PIM1 cells; Table 3, read-out: BaF3-Pim1): 10 nM | GI50 (BaF3 PIM1 cells; incubated overnight, read-out: Prolif BaF3_PIM1 (IC50)): 13.5 nM | pEC50 (MM1.S cells; 72 hours, read-out: Prolif MM1S ATP (EC50)): 7.30 | pEC50 (MM1.S cells; Table 3, read-out: MM1.s): 6.70 | pIC50 (EOL-1): 8.00
Structure (SMILES): Nc1sc(-c2c(F)cccc2F)nc1C(=O)Nc1cnccc1N1CCC[C@H](N)C1 [Example 3, (S)-5-amino-N-(4-(3-aminopiperidin-1-yl)pyridin-3-yl)-2-(2,6-difluorophenyl)thiazole-4-carboxamide]
pIC50 (BaF3 parental cells): 5.10 | pIC50 [1]: 6.30 to 7.00 | single agent activity, PC3 [2]: little activity | effect on tumor growth at the lowest dose ([3]; Compound 3 5 mg/kg po qd x21): trend toward accelerated tumor growth, though this trend was not statistically significant | tumor growth inhibition (TGI) ([3]; Compound 3 50 mg/kg po qd x21, day 27 vs vehicle): about 70% | effect on tumor growth, single agents [4]: no significant effect on tumor growth | tumor growth inhibition (TGI) [5]: about 60% | tumor growth inhibition (TGI) [6]: about 45%
